Measurements: US20190355440A1, “FLOW CYTOMETRY DATA […] ANTIMICROBIAL AGENT S[…]” (priority 2016, published 2019)

Test system: Enterobacteriaceae strains
Assay: FCM-AST: flow cytometry fluorescence distribution (DiBAC4(3) membrane depolarization marker) of antibiotic-treated strains
Assay type: cell-based
Method: In a next step 22, liquid samples with different concentrations {C1, . . . , Cm} of the antibiotic are prepared for each of the selected strains Si, where C1=0 (no antibiotic) and m>2 is the number of non-null concentrations of antibiotic. Said concentrations are stored in the computer unit 14. […] After 2 h growth at 35° C. with shaking at 180 rpm, the resulting exponential phase bacterial culture is normalized at 0.5 McF and used to inoculate wells of a microtiterplate supplemented with antibiotics at the different concentrations {C1, . . . , Cm}. After 1 h of incubation at 35° C., a membrane depolarization fluorescent marker, for example (Bis-(1,3-Dibutylbarbituric Acid)Trimethine Oxonol), also known as “DiBAC4(3)”, is added to the wells at a final concentration of 0.5 μg/ml. An additional 15 min incubation with the marker is at 35° C. is then carried out. The concentrations {C1, . . . , Cm} are chosen such that the range [BPS, BPR] is included or equal to the range [C2, Cm] of non-null concentrations.
In the step 24, a FCM acquisition is performed for each sample by means of the flow-cytometer 12 and the corresponding FSC, SSC and fluorescence distributions stored in the computer unit 14. For each strain Si, and for each concentration Cj, a FSC distribution “FSCi,j”, a SSC distribution “SSCi,j” and a fluorescence distribution “FIi,j” are thus stored in the computer unit 14, e.g. in the form of digital vectors.
The experiment was performed as described in the following lines: • A panel of 107 Enterobacteriaceae strains (FIG. 6: Distribution of the panel of strains according to their MICs for Gentamicin) were treated with 0, 2, 4 and 8 mg/L of Gentamicin following the protocol described in FIG. 3 and analyzed by FCM.
In this experiment, we have made an evaluation of wide range of prediction models for Ceftazidime: • 128 Enterobacteriaceae strains (FIG. 9: Distribution of the panel of strains according to their MICs for Ceftazidime) were treated or not with four different concentrations of Ceftazidime (1, 2, 4 and 8 mg/L) using the FCM protocol described in FIG. 3; • FCM data were used to generate feature vectors as described above; • For each strategy (BPS, GS and GMS), 7 type of prediction models were built based on the feature vectors generated (FIG. 10: Number of predictions models generated. “FL1” means fluorescence); • The performance of all models were evaluated following cross validation as described above.

Gentamicin
fluorescence distribution profile vs untreated sample (intermediate phenotype strains, 2 mg/L Gentamicin): more strains showed no shift of fluorescence (profile A)
fluorescence distribution profile vs untreated sample (intermediate phenotype strains, 4 and 8 mg/L Gentamicin): equal number of strains exhibited either no shift (profile A) or heterogeneous fluorescence distribution (profile B)
resistant strains that did not show any shift in fluorescence (profile A) (resistant strains, all concentrations tested (2, 4, 8 mg/L)): 36 out of 37
fluorescence distribution profile vs untreated sample (susceptible phenotype strains, panel of 107 strains, 2 mg/L Gentamicin): equal number of strains exhibited either no shift (profile A) or heterogeneous fluorescence distributions (profile B)
fluorescence distribution profile vs untreated sample (susceptible phenotype strains, panel of 107 strains, 4 and 8 mg/L Gentamicin): the majority of strains exhibited an heterogeneous fluorescence distribution (profile B)

CC(C)(O/N=C(\C(=O)N[C@@H]1C(=O)N2C(C(=O)[O-])=C(C[n+]3ccccc3)CS[C@H]12)c1csc(N)n1)C(=O)O [Ceftazidime]
fluorescence distribution of treated strains (inferred from poor performance of quantile models) (128 Enterobacteriaceae strains, 1, 2, 4 and 8 mg/L Ceftazidime): the majority of strains treated with Ceftazidime exhibit homogeneous distributions of fluorescence
